Measurements from article PMC9939304 (Acta Pharmaceutica Sinica. B, 2022).
Like-named read-outs stand apart in the source and are kept apart here. Marks after values point to notes of the source that are not given here. One block for each compound: values may come before it.

What was measured:
[1] = oral metformin 40 mg/kg
[2] = test system: rat kidney slices; experiment: Uptake of metformin by precision-cut kidney slices; type: in vitro ADME; conditions: metformin 50 μg/mL, 15 min, 37 °C; slices from BDL rats
[3] = test system: OCT2 protein; experiment: OCT2 protein expression in Caco-2 cells; type: cell-based, human; conditions: 48 h; for Expressions of OCT2 protein, 5 bile salts tested: CDCA 100, CA 100, DCA 50, HDCA 100, GCA 100 μmol/L; for Expressions of OCT2 protein by FXR agonists: CDCA 100, bilirubin 50, GW4064 1 μmol/L
[4] = thiamine 20 μg/mL perfusion
[5] = endogenous thiamine; BDL rats
[6] = test system: FXR protein; experiment: FXR protein expression in HK-2 cells; type: cell-based, human
[7] = biological target: T1, FXR (Homo sapiens, UniProt Q96RI1); type: cell-based; conditions: HK-2 cells
T1 sequence (Q96RI1 1-486): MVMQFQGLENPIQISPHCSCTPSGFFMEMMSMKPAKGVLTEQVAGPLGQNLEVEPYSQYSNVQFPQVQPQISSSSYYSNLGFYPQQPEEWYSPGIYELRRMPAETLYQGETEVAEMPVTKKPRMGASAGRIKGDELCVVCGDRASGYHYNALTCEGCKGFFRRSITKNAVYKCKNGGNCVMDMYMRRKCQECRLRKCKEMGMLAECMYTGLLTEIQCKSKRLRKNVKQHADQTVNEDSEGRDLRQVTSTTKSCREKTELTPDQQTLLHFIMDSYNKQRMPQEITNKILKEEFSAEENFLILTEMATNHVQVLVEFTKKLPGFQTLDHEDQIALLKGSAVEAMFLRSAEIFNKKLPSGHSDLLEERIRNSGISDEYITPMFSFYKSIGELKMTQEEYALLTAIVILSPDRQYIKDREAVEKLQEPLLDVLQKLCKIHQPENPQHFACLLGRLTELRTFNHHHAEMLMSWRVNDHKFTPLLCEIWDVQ

[8] = test system: Oct1 protein; experiment: Oct1 protein expression in primarily cultured rat hepatocytes; type: cell-based; conditions: for Expressions of Oct1 protein: CDCA, bilirubin or GW4064
[9] = test system: Oct2 protein; experiment: Oct2 protein expression in primarily cultured rat hepatocytes; type: cell-based; conditions: for Expressions of Oct2 protein: CDCA, bilirubin or GW4064
[10] = test system: OCT2 protein; experiment: OCT2 protein expression in HK-2 cells; type: cell-based, human; conditions: 48 h; for Expressions of OCT2 protein by FXR agonists: CDCA 100, bilirubin 50, GW4064 1 μmol/L
[11] = test system: OCT1 protein; experiment: OCT1 protein expression in HepG2 cells; type: cell-based, human; conditions: for Concentration-dependent effect on expressions of OCT1 protein: 48 h, CDCA 25, 50, 100 μmol/L, bilirubin 1, 10, 50 μmol/L
[12] = biological target: T2, Oct3 (Rattus norvegicus, UniProt O88446); conditions: estradiol 1 μmol/L with metformin 50 μg/mL; Sham rats
T2 sequence (O88446 1-551): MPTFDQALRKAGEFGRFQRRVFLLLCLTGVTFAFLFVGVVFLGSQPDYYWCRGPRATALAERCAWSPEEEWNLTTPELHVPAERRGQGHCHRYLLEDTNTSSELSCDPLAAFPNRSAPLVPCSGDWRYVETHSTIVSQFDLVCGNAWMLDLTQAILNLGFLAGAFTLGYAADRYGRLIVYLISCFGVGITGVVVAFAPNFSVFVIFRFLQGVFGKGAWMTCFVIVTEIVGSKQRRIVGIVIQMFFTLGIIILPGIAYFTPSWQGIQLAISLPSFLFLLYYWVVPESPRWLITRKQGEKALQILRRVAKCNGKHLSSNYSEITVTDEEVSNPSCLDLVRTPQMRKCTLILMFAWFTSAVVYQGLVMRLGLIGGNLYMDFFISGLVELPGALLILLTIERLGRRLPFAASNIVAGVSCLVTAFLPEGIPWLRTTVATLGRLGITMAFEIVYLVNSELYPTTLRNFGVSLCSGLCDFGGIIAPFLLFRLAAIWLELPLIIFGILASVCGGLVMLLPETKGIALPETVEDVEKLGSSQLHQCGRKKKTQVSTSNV

[13] = biological target: Oct1 (Rattus norvegicus, UniProt Q63089); experiment: in vitro; conditions: probe metformin (100 μmol/L)
Oct1, sequence (Q63089 whole entry): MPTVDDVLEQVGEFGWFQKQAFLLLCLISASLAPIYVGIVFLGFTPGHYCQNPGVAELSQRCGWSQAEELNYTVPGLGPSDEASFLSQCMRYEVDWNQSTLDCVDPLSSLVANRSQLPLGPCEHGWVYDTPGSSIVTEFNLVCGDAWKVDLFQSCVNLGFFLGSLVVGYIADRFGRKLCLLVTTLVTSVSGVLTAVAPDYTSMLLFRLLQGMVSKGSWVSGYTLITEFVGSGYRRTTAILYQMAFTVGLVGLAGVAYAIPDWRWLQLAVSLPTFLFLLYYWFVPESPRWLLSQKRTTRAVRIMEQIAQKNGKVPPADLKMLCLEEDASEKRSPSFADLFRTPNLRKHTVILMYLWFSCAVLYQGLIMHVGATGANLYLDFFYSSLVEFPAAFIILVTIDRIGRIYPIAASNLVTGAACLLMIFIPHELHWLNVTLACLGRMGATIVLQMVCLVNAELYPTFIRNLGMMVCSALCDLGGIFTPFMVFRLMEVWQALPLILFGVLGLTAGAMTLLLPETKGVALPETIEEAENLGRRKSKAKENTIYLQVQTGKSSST

[14] = type: in vivo, rat; conditions: stigmasterol 200 mg/kg qd plus CDCA 180 mg/kg qd oral, 14 days
[15] = test system: Oct2; type: in vivo, rat; conditions: stigmasterol 200 mg/kg qd plus CDCA 180 mg/kg qd oral, 14 days
[16] = biological target: T1, FXR; type: cell-based; conditions: HepG2 cell
[17] = test system: Mate1; experiment: Renal Mate1 protein expression in treated rats; type: in vivo, rat; conditions: 14 days: CDCA 180 mg/kg qd oral
[18] = test system: Oct2/3; conditions: Sham rats
[19] = biological target: T3, Oct2/3 (Rattus norvegicus, UniProt Q9R0W2); conditions: corticosterone 5 mg/kg ip, normal rats; iv metformin 10 mg/kg
T3 sequence (Q9R0W2 1-555): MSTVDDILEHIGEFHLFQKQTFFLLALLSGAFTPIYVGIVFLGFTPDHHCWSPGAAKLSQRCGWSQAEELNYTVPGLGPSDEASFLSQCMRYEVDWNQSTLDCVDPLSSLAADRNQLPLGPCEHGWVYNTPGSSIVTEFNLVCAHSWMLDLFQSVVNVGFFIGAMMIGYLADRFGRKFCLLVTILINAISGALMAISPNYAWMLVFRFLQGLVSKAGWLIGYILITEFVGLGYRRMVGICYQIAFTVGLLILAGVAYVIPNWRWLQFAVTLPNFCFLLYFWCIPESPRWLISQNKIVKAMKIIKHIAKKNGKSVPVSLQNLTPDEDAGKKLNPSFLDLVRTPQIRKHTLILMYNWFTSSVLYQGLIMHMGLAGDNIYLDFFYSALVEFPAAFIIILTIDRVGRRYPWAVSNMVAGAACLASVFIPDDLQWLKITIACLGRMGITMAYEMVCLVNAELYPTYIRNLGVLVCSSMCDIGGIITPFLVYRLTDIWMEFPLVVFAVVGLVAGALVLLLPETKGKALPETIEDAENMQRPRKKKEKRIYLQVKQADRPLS

[20] = CON rats of CDCA study (Table S5)

SMILES: C[C@H](CCC(=O)NCC(=O)O)[C@H]1CC[C@H]2[C@@H]3[C@H](O)C[C@@H]4C[C@H](O)CC[C@]4(C)[C@H]3C[C@H](O)[C@]12C [GCA, Glycocholic acid]
Expressions of OCT2 protein, 5 bile salts tested [3]: only CDCA remarkably induces

SMILES: CC(C)c1onc(-c2c(Cl)cccc2Cl)c1COc1ccc(/C=C/c2cccc(C(=O)O)c2)c(Cl)c1 [GW4064]
Expressions of Oct1 protein [8]: downregulate expressions of Oct1 protein
Expressions of Oct2 protein [9]: upregulate expressions of Oct2 protein
Expressions of OCT2 protein by FXR agonists [3]: induce expressions of OCT2 protein
Expressions of OCT2 protein by FXR agonists [10]: increase expressions of OCT2 protein
Expressions of OCT1 protein ([11]; GW4064): also downregulates

SMILES: C[C@H](CCC(=O)O)[C@H]1CC[C@H]2[C@@H]3[C@H](O)C[C@@H]4C[C@H](O)CC[C@]4(C)[C@H]3C[C@H](O)[C@]12C [CA, Cholic acid]
Expressions of OCT2 protein, 5 bile salts tested [3]: only CDCA remarkably induces

SMILES: C[C@H](CCC(=O)O)[C@H]1CC[C@H]2[C@@H]3CC[C@@H]4C[C@H](O)CC[C@]4(C)[C@H]3C[C@H](O)[C@]12C [DCA, Eeoxycholic acid]
Expressions of OCT2 protein, 5 bile salts tested [3]: only CDCA remarkably induces

SMILES: C[C@H](CCC(=O)O)[C@H]1CC[C@H]2[C@@H]3[C@H](O)C[C@@H]4C[C@H](O)CC[C@]4(C)[C@H]3CC[C@]12C [CDCA, chenodeoxycholic acid]
Expressions of Oct1 protein [8]: downregulate expressions of Oct1 protein
Expressions of Oct2 protein [9]: upregulate expressions of Oct2 protein
Concentration-dependent effect on expressions of OCT2 ([3]; CDCA 25, 50, 100 μmol/L, bilirubin 10, 25, 50 μmol/L): concentration-dependently increase
Expressions of OCT2 protein, 5 bile salts tested [3]: remarkably induces
Expressions of OCT2 protein by FXR agonists [3]: induce expressions of OCT2 protein
Expressions of OCT2 protein by FXR agonists [10]: increase expressions of OCT2 protein
Expressions of renal Mate1 protein in treated rats [17]: unaltered
Concentration-dependent effect on expressions of OCT1 protein [11]: concentration-dependently downregulate

SMILES: C[C@H](CCC(=O)O)[C@H]1CC[C@H]2[C@@H]3C[C@H](O)[C@@H]4C[C@H](O)CC[C@]4(C)[C@H]3CC[C@]12C [HDCA, Hyodeoxycholic acid]
Expressions of OCT2 protein, 5 bile salts tested [3]: only CDCA remarkably induces

Further lines, with some results ahead:

AUC ([1]; CDCA-treated rats (Table S5)): 906.85 ± 52.16 µg·min/mL
Cmax ([1]; CDCA-treated rats (Table S5)): 4360 ± 380 ng/mL
AUC [1, 20]: 707.20 ± 30.01 µg·min/mL
Cmax [1, 20]: 3190 ± 120 ng/mL
Uptake of metformin in renal slice, BDL vs Sham [2]: significantly increases
V1 (BDL rat, same value as Sham): 102.99 mL
V1 (Sham rat, 250 g, estimated from original data): 102.99 ^j mL
SMILES: CN(C)C(=N)N=C(N)N [metformin]

Peff values of thiamine in BDL rats vs Sham [4]: significantly decrease
Urinary excreted amount of thiamine during 6 h, BDL relative to Sham [5]: 187 % of Sham rats
SMILES: Cc1ncc(C[n+]2csc(CCO)c2C)c(N)n1 [thiamine]

Expressions of SHP and FGF19 mRNA [7]: significantly upregulate
SMILES: C=CC1=C(C)/C(=C/c2[nH]c(Cc3[nH]c(/C=C4\NC(=O)C(C)=C4C=C)c(C)c3CCC(=O)O)c(CCC(=O)O)c2C)NC1=O [bilirubin]
Expressions of FXR protein [6]: can induce
Expressions of Oct1 protein [8]: downregulate expressions of Oct1 protein
Expressions of Oct2 protein [9]: upregulate expressions of Oct2 protein
Expressions of OCT2 protein by FXR agonists [10]: increase expressions of OCT2 protein
Concentration-dependent effect on expressions of OCT1 protein [11]: concentration-dependently downregulate

Effect on Peff of metformin [12]: does not affect
SMILES: C[C@]12CC[C@@H]3c4ccc(O)cc4CC[C@H]3[C@@H]1CC[C@@H]2O [estradiol]

inhibition at 1.5 min, 20 μmol/L ([13]; primary hepatocytes from BDL rats): 25.2%
inhibition at 1.5 min, 20 μmol/L ([13]; primary hepatocytes from Sham rats): 58.7%
SMILES: NCCc1ccc(O)c(O)c1 [dopamine]

Expressions of FGF19 mRNA ([7]; MCA): slight inhibits
Expressions of SHP mRNA ([7]; MCA): significantly downregulates
SMILES: C[C@H](CCC(=O)NCC(=O)O)[C@H]1CC[C@H]2[C@@H]3[C@@H](O)[C@@H](O)[C@@H]4C[C@H](O)CC[C@]4(C)[C@H]3CC[C@]12C [MCA, glycine-β-muricholic acid]
Effect on downregulation of Oct1 protein by CDCA, bilirubin and GW4064 ([8]; MCA): remarkably attenuated
Effect on upregulation of Oct2 protein by CDCA, bilirubin and GW4064 ([9]; MCA): remarkably attenuated
Effect on induction of OCT2 protein by bilirubin, CDCA and GW4064 ([3]; MCA 100 μmol/L): remarkably attenuated
Effect on increase of OCT2 protein by CDCA, bilirubin and GW4064 ([10]; MCA 100 μmol/L): reversed
Effect on decreases in OCT1 by CDCA, bilirubin and GW4064 ([11]; MCA): remarkably reversed

Effect on CDCA-induced increase in levels of blood thiamine [14]: attenuated
Effect on upregulation of SHP and FGF19 mRNA by CDCA ([16]; co-administration of stigmasterol with CDCA): significantly reversed
mRNA expressions of SHP and FGF19, stigmasterol alone ([16]; stigmasterol 100 μmol/L): little affects
SMILES: CC[C@H](/C=C/[C@@H](C)[C@H]1CC[C@H]2[C@@H]3CC=C4C[C@@H](O)CC[C@]4(C)[C@H]3CC[C@]12C)C(C)C [stigmasterol]
Effect on the increased expressions of intestinal Oct2 protein by CDCA [15]: attenuates

In vivo hepatic uptake clearance of metformin with corticosterone [19]: 50 % of CON rats
SMILES: C[C@]12C[C@H](O)[C@H]3[C@@H](CCC4=CC(=O)CC[C@@]43C)[C@@H]1CC[C@@H]2C(=O)CO [corticosterone]
Intestinal absorption (Peff) of metformin with inhibitor ([18]; corticosterone 4 μmol/L with metformin 50 μg/mL): 60 % of control rats
Effect on Peff values of thiamine ([18]; corticosterone 4 μmol/L with thiamine 20 μg/mL): significantly decrease
